Data as given in PubChem BioAssay AID1963964 (Molecular Pharmacology Branch, DTP, NCI, 2024).
pIC50: −log10 of the molar value.

Test system: 997726-040-R-J2-PDC tumor spheroids, viability
Assay: Anticancer human tumor 997726-040-R-J2-PDC patient-derived squamous cell lung carcinoma cell line growth inhibition [PI3K]
Details: spheroids with HUVEC and MSC; for pIC50: curve of first compound; for viability, T/C: stronger effect = lower value; active = viability on the fitted dose curve at most 10% of control; inactive = the rest
How it was run: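 We assembled tumor spheroids that included a stromal compartment of HUVEC and MSCs, then exposed them to targeted agents alone and together with PI3K pathway inhibitors. Concentration series descended by half-log from clinically achievable Cmax levels. Viability served as the endpoint.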

[1] = second compound 0.0316 µM, first compound 0.000316 µM
[2] = second compound 0.0316 µM, first compound 0.001 µM
[3] = second compound 0.0316 µM, first compound 0.00316 µM
[4] = second compound 0.0316 µM, first compound 0.01 µM
[5] = second compound 0.0316 µM, first compound 0.0316 µM
[6] = second compound 0.0316 µM, first compound 0.1 µM
[7] = second compound 0.1 µM, first compound 0.000316 µM
[8] = second compound 0.1 µM, first compound 0.001 µM
[9] = second compound 0.1 µM, first compound 0.00316 µM
[10] = second compound 0.1 µM, first compound 0.01 µM
[11] = second compound 0.1 µM, first compound 0.0316 µM
[12] = second compound 0.1 µM, first compound 0.1 µM
[13] = second compound 0.316 µM, first compound 0.000316 µM
[14] = second compound 0.316 µM, first compound 0.001 µM
[15] = second compound 0.316 µM, first compound 0.00316 µM
[16] = second compound 0.316 µM, first compound 0.01 µM
[17] = second compound 0.316 µM, first compound 0.0316 µM
[18] = second compound 0.316 µM, first compound 0.1 µM
[19] = second compound 1 µM, first compound 0.000316 µM
[20] = second compound 1 µM, first compound 0.001 µM
[21] = second compound 1 µM, first compound 0.00316 µM
[22] = second compound 1 µM, first compound 0.01 µM
[23] = second compound 1 µM, first compound 0.0316 µM
[24] = second compound 1 µM, first compound 0.1 µM
[25] = second compound 3.16 µM, first compound 0.000316 µM
[26] = second compound 3.16 µM, first compound 0.001 µM
[27] = second compound 3.16 µM, first compound 0.00316 µM
[28] = second compound 3.16 µM, first compound 0.01 µM
[29] = second compound 3.16 µM, first compound 0.0316 µM
[30] = second compound 3.16 µM, first compound 0.1 µM
[31] = second compound 10 µM, first compound 0.000316 µM
[32] = second compound 10 µM, first compound 0.001 µM
[33] = second compound 10 µM, first compound 0.00316 µM
[34] = second compound 10 µM, first compound 0.01 µM
[35] = second compound 10 µM, first compound 0.0316 µM
[36] = second compound 10 µM, first compound 0.1 µM
[37] = second compound 0.0316 µM, first compound 0.316 µM
[38] = second compound 0.0316 µM, first compound 1 µM
[39] = second compound 0.0316 µM, first compound 3.16 µM
[40] = second compound 0.0316 µM, first compound 10 µM
[41] = second compound 0.1 µM, first compound 0.316 µM
[42] = second compound 0.1 µM, first compound 1 µM
[43] = second compound 0.1 µM, first compound 3.16 µM
[44] = second compound 0.1 µM, first compound 10 µM
[45] = second compound 0.316 µM, first compound 0.316 µM
[46] = second compound 0.316 µM, first compound 1 µM
[47] = second compound 0.316 µM, first compound 3.16 µM
[48] = second compound 0.316 µM, first compound 10 µM
[49] = second compound 1 µM, first compound 0.316 µM
[50] = second compound 1 µM, first compound 1 µM
[51] = second compound 1 µM, first compound 3.16 µM
[52] = second compound 1 µM, first compound 10 µM
[53] = second compound 3.16 µM, first compound 0.316 µM
[54] = second compound 3.16 µM, first compound 1 µM
[55] = second compound 3.16 µM, first compound 3.16 µM
[56] = second compound 3.16 µM, first compound 10 µM
[57] = second compound 10 µM, first compound 0.316 µM
[58] = second compound 10 µM, first compound 1 µM
[59] = second compound 10 µM, first compound 3.16 µM
[60] = second compound 10 µM, first compound 10 µM
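Also: spheroids exposed to compounds for seven days before readout.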

CC(=O)c1c(C)c2cnc(Nc3ccc(N4CCNCC4)cn3)nc2n(C2CCCC2)c1=O + CC(Nc1ncnc2nc[nH]c12)c1cc2cccc(Cl)c2c(=O)n1-c1ccccc1
inactive: viability, T/C [1] 94% | viability, T/C [2] 109% | viability, T/C [3] 93.7% | viability, T/C [4] 87.7% | viability, T/C [5] 86.1% | viability, T/C [6] 61.2% | viability, T/C [7] 102% | viability, T/C [8] 94.8% | viability, T/C [9] 91.3% | viability, T/C [10] 96.6% | viability, T/C [11] 78.3% | viability, T/C [12] 65.5% | viability, T/C [13] 99.8% | viability, T/C [14] 96.7% | viability, T/C [15] 91.3% | viability, T/C [16] 83.5% | viability, T/C [17] 81.6% | viability, T/C [18] 57.3% | viability, T/C [19] 97.1% | viability, T/C [20] 85.7% | viability, T/C [21] 86.9% | viability, T/C [22] 74.1% | viability, T/C [23] 75.8% | viability, T/C [24] 53.3% | viability, T/C [25] 72.9% | viability, T/C [26] 71.7% | viability, T/C [27] 77.3% | viability, T/C [28] 70.1% | viability, T/C [29] 58.4% | viability, T/C [30] 50.4% | viability, T/C [31] 53.9% | viability, T/C [32] 51.6% | viability, T/C [33] 56.9% | viability, T/C [34] 50.4% | viability, T/C [35] 41.8% | viability, T/C [36] 43.4%
< 7.00: pIC50 (second compound 0.0316 µM) | pIC50 (second compound 0.1 µM) | pIC50 (second compound 0.316 µM) | pIC50 (second compound 1 µM) | pIC50 (second compound 3.16 µM)
7.97: pIC50 (second compound 10 µM)

CC(C)n1nc(-c2ccc3oc(N)nc3c2)c2c(N)ncnc21 + CC(Nc1ncnc2nc[nH]c12)c1cc2cccc(Cl)c2c(=O)n1-c1ccccc1
7.63: pIC50 (second compound 0.0316 µM)
inactive: viability, T/C [1] 99.1% | viability, T/C [2] 89.6% | viability, T/C [3] 77.3% | viability, T/C [4] 62.1% | viability, T/C [5] 50% | viability, T/C [6] 18% | viability, T/C [7] 99.3% | viability, T/C [8] 88.2% | viability, T/C [9] 80.2% | viability, T/C [10] 64% | viability, T/C [11] 48.6% | viability, T/C [12] 19.5% | viability, T/C [13] 93.2% | viability, T/C [14] 90.7% | viability, T/C [15] 75.3% | viability, T/C [16] 62.8% | viability, T/C [17] 48.7% | viability, T/C [18] 17.4% | viability, T/C [19] 86.2% | viability, T/C [20] 83.1% | viability, T/C [21] 70.2% | viability, T/C [22] 63.8% | viability, T/C [23] 43.4% | viability, T/C [24] 17% | viability, T/C [25] 75.4% | viability, T/C [26] 65.2% | viability, T/C [27] 53.2% | viability, T/C [28] 45.4% | viability, T/C [29] 39.4% | viability, T/C [30] 16.7% | viability, T/C [31] 56.8% | viability, T/C [32] 51.4% | viability, T/C [33] 50% | viability, T/C [34] 41.8% | viability, T/C [35] 31.2% | viability, T/C [36] 11.9%
7.60: pIC50 (second compound 0.1 µM)
7.62: pIC50 (second compound 0.316 µM)
8.21: pIC50 (second compound 3.16 µM)
7.68: pIC50 (second compound 1 µM)
8.60: pIC50 (second compound 10 µM)

CC1(C)CCC(CN2CCN(c3ccc(C(=O)NS(=O)(=O)c4ccc(NCC5CCOCC5)c([N+](=O)[O-])c4)c(Oc4cnc5[nH]ccc5c4)c3)CC2)=C(c2ccc(Cl)cc2)C1 + CC(Nc1ncnc2nc[nH]c12)c1cc2cccc(Cl)c2c(=O)n1-c1ccccc1
5.47: pIC50 (second compound 10 µM)
< 5.00: pIC50 (second compound 0.0316 µM) | pIC50 (second compound 1 µM)
5.20: pIC50 (second compound 3.16 µM)
5.01: pIC50 (second compound 0.1 µM)
5.03: pIC50 (second compound 0.316 µM)
inactive: viability, T/C [5] 101% | viability, T/C [6] 87.9% | viability, T/C [37] 93.4% | viability, T/C [38] 102% | viability, T/C [39] 104% | viability, T/C [40] 52.2% | viability, T/C [11] 102% | viability, T/C [12] 94% | viability, T/C [41] 109% | viability, T/C [42] 105% | viability, T/C [43] 98.6% | viability, T/C [44] 49.4% | viability, T/C [17] 97.1% | viability, T/C [18] 95.4% | viability, T/C [45] 103% | viability, T/C [46] 93.5% | viability, T/C [47] 91.7% | viability, T/C [48] 47.2% | viability, T/C [23] 94.3% | viability, T/C [24] 85.7% | viability, T/C [49] 92% | viability, T/C [50] 80.6% | viability, T/C [51] 89.9% | viability, T/C [52] 51% | viability, T/C [29] 73.1% | viability, T/C [30] 74.5% | viability, T/C [53] 73% | viability, T/C [54] 72.4% | viability, T/C [55] 71.9% | viability, T/C [56] 35.1% | viability, T/C [35] 55.7% | viability, T/C [36] 56.4% | viability, T/C [57] 48.3% | viability, T/C [58] 53.8% | viability, T/C [59] 51.2% | viability, T/C [60] 29.4%

CCCS(=O)(=O)Nc1ccc(F)c(C(=O)c2c[nH]c3ncc(-c4ccc(Cl)cc4)cc23)c1F + CC(Nc1ncnc2nc[nH]c12)c1cc2cccc(Cl)c2c(=O)n1-c1ccccc1
inactive: viability, T/C [5] 104% | viability, T/C [6] 103% | viability, T/C [37] 128% | viability, T/C [38] 137% | viability, T/C [39] 162% | viability, T/C [40] 20.9% | viability, T/C [11] 107% | viability, T/C [12] 116% | viability, T/C [41] 110% | viability, T/C [42] 121% | viability, T/C [43] 166% | viability, T/C [44] 23.1% | viability, T/C [17] 103% | viability, T/C [18] 102% | viability, T/C [45] 114% | viability, T/C [46] 138% | viability, T/C [47] 169% | viability, T/C [48] 23.1% | viability, T/C [23] 102% | viability, T/C [24] 95.5% | viability, T/C [49] 109% | viability, T/C [50] 126% | viability, T/C [51] 146% | viability, T/C [52] 23% | viability, T/C [29] 71.1% | viability, T/C [30] 80% | viability, T/C [53] 83.9% | viability, T/C [54] 85.4% | viability, T/C [55] 107% | viability, T/C [56] 20.5% | viability, T/C [35] 53.7% | viability, T/C [36] 57.2% | viability, T/C [57] 60.1% | viability, T/C [58] 60.4% | viability, T/C [59] 82.6% | viability, T/C [60] 19.3%
5.35: pIC50 (second compound 10 µM)
5.14: pIC50 (second compound 0.0316 µM) | pIC50 (second compound 1 µM)
5.13: pIC50 (second compound 0.1 µM) | pIC50 (second compound 0.316 µM)
5.23: pIC50 (second compound 3.16 µM)
